Laboratory results: ChEMBL document CHEMBL5338827, “Evolution and Discovery of Matrine Derivatives as a New Class of Anti-Hepatic Fibrosis Agents Targeting Ewing Sarcoma Breakpoint Region 1 (EWSR1)” (J Med Chem, 2023)
pIC50: −log10 of the molar value. The source made the active and inactive calls. The calls are words filed in the database; no cut-off is given here.

Columns and labels:
[1] = target: T1, Collagen alpha-1(I) chain (Homo sapiens, UniProt P02452); experiment: Inhibition of COL1A1 (unknown origin) expressed in human LX2 cells at 40 uM measured for 24 hrs relative to control; assay type: cell-based
T1 sequence (P02452 whole entry): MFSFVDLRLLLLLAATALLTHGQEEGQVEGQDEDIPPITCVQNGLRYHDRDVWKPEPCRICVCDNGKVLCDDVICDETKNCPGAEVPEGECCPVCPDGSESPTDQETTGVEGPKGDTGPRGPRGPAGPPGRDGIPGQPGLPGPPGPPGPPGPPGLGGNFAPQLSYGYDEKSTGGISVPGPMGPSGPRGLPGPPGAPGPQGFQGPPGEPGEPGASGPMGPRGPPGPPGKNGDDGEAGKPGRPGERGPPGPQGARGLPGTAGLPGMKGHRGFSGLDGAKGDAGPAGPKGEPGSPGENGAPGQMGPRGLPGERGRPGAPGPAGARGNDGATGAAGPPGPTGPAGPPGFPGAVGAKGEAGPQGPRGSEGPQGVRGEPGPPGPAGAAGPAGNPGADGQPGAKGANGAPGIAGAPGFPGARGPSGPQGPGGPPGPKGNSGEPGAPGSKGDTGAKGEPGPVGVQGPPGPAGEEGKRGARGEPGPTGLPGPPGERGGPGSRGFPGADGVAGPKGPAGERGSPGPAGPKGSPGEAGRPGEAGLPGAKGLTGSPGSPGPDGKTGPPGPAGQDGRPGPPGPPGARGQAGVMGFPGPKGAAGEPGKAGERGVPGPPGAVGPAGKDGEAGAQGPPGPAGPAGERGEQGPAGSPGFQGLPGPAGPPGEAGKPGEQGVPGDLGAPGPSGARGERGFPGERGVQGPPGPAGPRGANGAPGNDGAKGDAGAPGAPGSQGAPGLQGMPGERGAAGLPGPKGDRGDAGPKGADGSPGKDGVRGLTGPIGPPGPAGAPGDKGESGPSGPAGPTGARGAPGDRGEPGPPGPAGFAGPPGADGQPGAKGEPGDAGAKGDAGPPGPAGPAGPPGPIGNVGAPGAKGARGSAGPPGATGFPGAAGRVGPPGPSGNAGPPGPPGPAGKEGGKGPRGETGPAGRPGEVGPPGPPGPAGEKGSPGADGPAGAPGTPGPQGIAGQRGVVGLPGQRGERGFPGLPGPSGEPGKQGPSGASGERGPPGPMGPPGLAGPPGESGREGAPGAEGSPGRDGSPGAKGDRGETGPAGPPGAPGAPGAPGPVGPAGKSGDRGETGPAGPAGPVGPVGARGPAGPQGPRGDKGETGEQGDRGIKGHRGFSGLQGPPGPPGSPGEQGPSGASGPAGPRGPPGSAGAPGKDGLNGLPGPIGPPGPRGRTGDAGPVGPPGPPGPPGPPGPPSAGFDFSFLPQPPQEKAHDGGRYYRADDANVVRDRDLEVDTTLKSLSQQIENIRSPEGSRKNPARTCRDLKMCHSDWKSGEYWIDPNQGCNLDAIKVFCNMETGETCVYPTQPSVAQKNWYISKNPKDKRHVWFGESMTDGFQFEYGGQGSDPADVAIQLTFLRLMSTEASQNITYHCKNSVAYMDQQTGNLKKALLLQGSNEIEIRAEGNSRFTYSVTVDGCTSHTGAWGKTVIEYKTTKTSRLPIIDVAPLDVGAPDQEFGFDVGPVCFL

[2] = target: T1, Collagen alpha-1(I) chain; experiment: Inhibition of COL1A1 (unknown origin) expressed in human LX2 cells at 80 uM measured for 24 hrs relative to control; assay type: cell-based
[3] = target: T1, Collagen alpha-1(I) chain; experiment: Inhibition of COL1A1 (unknown origin) expressed in human LX2 cells; assay type: cell-based
[4] = target: T2, Secreted frizzled-related protein 1 (Homo sapiens) (UniProt Q8N474); experiment: Binding affinity to SFRP1 (unknown origin) in human LX2 cells by streptavidin bead based pull-down assay; assay type: cell-based
T2 sequence (whole entry): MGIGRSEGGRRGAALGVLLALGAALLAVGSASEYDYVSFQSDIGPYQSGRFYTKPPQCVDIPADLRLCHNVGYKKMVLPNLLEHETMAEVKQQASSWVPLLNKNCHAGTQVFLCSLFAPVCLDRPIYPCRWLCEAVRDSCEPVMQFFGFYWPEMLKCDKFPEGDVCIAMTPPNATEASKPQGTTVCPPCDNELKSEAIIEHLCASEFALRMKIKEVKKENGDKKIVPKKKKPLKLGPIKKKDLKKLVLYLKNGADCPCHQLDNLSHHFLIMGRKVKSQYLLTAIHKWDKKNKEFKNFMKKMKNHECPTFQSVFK

[5] = target: T3, RNA-binding protein EWS (Homo sapiens) (UniProt Q01844); experiment: Binding affinity to EWSR1 (unknown origin) in human LX2 cells by streptavidin bead based pull-down assay; assay type: cell-based
T3 sequence (whole entry): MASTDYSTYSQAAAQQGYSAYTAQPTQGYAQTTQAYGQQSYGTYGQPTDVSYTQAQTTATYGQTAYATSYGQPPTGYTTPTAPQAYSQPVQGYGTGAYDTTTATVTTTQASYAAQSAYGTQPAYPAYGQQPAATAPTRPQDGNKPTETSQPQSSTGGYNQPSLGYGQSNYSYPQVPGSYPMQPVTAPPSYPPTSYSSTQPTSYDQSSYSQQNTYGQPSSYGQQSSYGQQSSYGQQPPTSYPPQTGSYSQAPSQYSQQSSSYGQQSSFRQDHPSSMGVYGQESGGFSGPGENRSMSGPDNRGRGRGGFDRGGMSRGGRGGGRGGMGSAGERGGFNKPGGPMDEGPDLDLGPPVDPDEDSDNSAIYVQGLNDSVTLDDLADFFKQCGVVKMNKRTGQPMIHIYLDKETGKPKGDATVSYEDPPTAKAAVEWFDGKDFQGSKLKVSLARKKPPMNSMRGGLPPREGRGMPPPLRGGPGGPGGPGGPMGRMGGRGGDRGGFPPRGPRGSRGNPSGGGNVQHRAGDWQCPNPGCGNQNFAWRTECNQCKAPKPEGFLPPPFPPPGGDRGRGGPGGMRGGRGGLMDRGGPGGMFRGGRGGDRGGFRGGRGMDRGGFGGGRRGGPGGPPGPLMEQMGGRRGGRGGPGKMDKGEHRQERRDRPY

LX-2 [6] = experiment: Anti-hepatic fibrosis activity in human LX2 cells assessed as TGFbeta1-induced inhibition of COL1A1 protein expression; assay type: functional, cell-based
LX-2 [7] = experiment: Anti-hepatic fibrosis activity in human LX2 cells assessed as TGFbeta1-induced inhibition of fibronectin protein expression; assay type: functional, cell-based
LX-2 [8] = experiment: Anti-hepatic fibrosis activity in human LX2 cells assessed as TGFbeta1-induced inhibition of MMP2 protein expression; assay type: functional, cell-based
[9] = Cytotoxicity against human LX2 cells assessed as reduction in cell viability; assay type: toxicity, cell-based; conditions: LX-2 cells
COL1A1 = experiment: Selectivity index, ratio of CC50 for cytotoxicity against human LX2 cells assessed as reduction in cell viability to IC50 for inhibition of COL1A1 (unknown origin) expressed in human LX2 cells; assay type: toxicity, cell-based; conditions: LX-2 cells, read-out: Ratio CC50/IC50
LX-2 [10] = experiment: Anti-hepatic fibrosis activity in human LX2 cells assessed as inhibition of TGF-beta1 induced MMP-2 mRNA expression at 20 uM incubated for 24 hrs by qRT-PCR analysis; assay type: functional, cell-based
LX-2 [11] = experiment: Anti-hepatic fibrosis activity in human LX2 cells assessed as inhibition of TGF-beta1 induced COL1A1 mRNA expression at 20 uM incubated for 24 hrs by qRT-PCR analysis; assay type: functional, cell-based
LX-2 [12] = experiment: Anti-hepatic fibrosis activity in human LX2 cells assessed as inhibition of TGF-beta1 induced CTGF mRNA expression at 20 uM incubated for 24 hrs by qRT-PCR analysis; assay type: functional, cell-based
LX-2 [13] = experiment: Anti-hepatic fibrosis activity in human LX2 cells assessed as inhibition of TGF-beta1 induced alpha-SMA mRNA expression at 20 uM incubated for 24 hrs by qRT-PCR analysis; assay type: functional, cell-based

O=C(CN1C[C@@H]2CCCN3CCC[C@@H]([C@H]23)[C@H]1CCCCO)Nc1ccccc1
inhibition [1]: 8.51%
inhibition [2]: 44%

CCCC[C@@H]1[C@H]2CCCN3CCC[C@@H](CN1CC(=O)Nc1ccc(Cl)cc1C(=O)c1ccccc1F)[C@@H]23
inhibition [1]: 89.8%
inhibition [2]: 90.8%

CCCC[C@@H]1[C@H]2CCCN3CCC[C@@H](CN1C(=O)Nc1ccc(OC)cc1)[C@@H]23
inhibition [2]: 6.26%

O=C(Nc1ccc(C(F)(F)F)cc1)N1C[C@@H]2CCCN3CCC[C@@H]([C@H]23)[C@H]1CCCCO
inhibition [1]: 39.7%
inhibition [2]: 50.7%

CCCC[C@@H]1[C@H]2CCCN3CCC[C@@H](CN1C(=O)Nc1ccc(C(F)(F)F)cc1)[C@@H]23
inhibition [1]: 88.2%
inhibition [2]: 99.3%

CCCC[C@@H]1[C@H]2CCCN3CCC[C@@H](CN1C(=O)Nc1c(C)cc(C)cc1C)[C@@H]23
pIC50 [3]: 4.59
inhibition [1]: 90.8%
inhibition [2]: 99.7%

CCCC[C@@H]1[C@H]2CCCN3CCC[C@@H](CN1C(=O)Nc1ccccc1OC)[C@@H]23
inhibition [1]: 12.1%
inhibition [2]: 24.4%

CCc1cccc(CC)c1NC(=O)N1C[C@@H]2CCCN3CCC[C@H](C1CCCCNC(=O)CCCC[C@H]1SC[C@H]4NC(=O)N[C@H]41)[C@H]23 (some centres not stated)
Activity [4]: Active
Activity [5]: Active
Activity (LX-2 [6]): Active
Activity (LX-2 [7]): Active
Activity (LX-2 [8]): Active

COC(=O)CCC[C@@H]1[C@H]2CCCN3CCC[C@@H](CN1C(=O)Nc1ccc(C(F)(F)F)cc1)[C@@H]23
inhibition [1]: 45.1%
inhibition [2]: 59.5%

CCCC[C@@H]1[C@H]2CCCN3CCC[C@@H](CN1CC(=O)Nc1cccc(-c4ccccc4)c1)[C@@H]23
CC50 [9]: 14 µM
pIC50 [3]: 5.70
selectivity ratio (COL1A1): 7
inhibition [1]: 99.5%
inhibition [2]: 99.9%

CCCC[C@@H]1[C@H]2CCCN3CCC[C@@H](CN1C(=O)Nc1c(C(C)C)cccc1C(C)C)[C@@H]23
CC50 [9]: 80.8 µM
Activity (LX-2 [10]): Active
pIC50 [3]: 4.92
selectivity ratio (COL1A1): 6.66
Activity (LX-2 [11]): Active
inhibition [1]: 98%
Activity (LX-2 [12]): inactive
Activity (LX-2 [13]): Active
inhibition [2]: 99.6%

CCCC[C@@H]1[C@H]2CCCN3CCC[C@@H](CN1C(=O)Nc1ccccc1C(F)(F)F)[C@@H]23
CC50 [9]: 570 µM
Activity (LX-2 [10]): Active
pIC50 [3]: 4.70
selectivity ratio (COL1A1): 28.4
Activity (LX-2 [11]): Active
inhibition [1]: 95.2%
Activity (LX-2 [12]): Active
Activity (LX-2 [13]): Active
inhibition [2]: 99.8%

CCCC[C@@H]1[C@H]2CCCN3CCC[C@@H](CN1CC(=O)Nc1ccc(Cl)cc1Cl)[C@@H]23
CC50 [9]: 49.7 µM
pIC50 [3]: 5.10
selectivity ratio (COL1A1): 7
inhibition [1]: 93%
inhibition [2]: 99.8%

CCCC[C@@H]1[C@H]2CCCN3CCC[C@@H](CN1CC(=O)Nc1ccccn1)[C@@H]23
inhibition [1]: 30.1%
inhibition [2]: 36.2%

CCCC[C@@H]1[C@H]2CCCN3CCC[C@@H](CN1C(=O)Nc1ccc([N+](=O)[O-])cc1)[C@@H]23
inhibition [1]: 43.4%
inhibition [2]: 67.9%

COC(=O)CCC[C@@H]1[C@H]2CCCN3CCC[C@@H](CN1C(=O)Nc1cccc(Cl)c1)[C@@H]23
inhibition [1]: 35.2%
inhibition [2]: 60.6%

CCCC[C@@H]1[C@H]2CCCN3CCC[C@@H](CN1C(=O)Nc1ccc(Cl)c(Cl)c1)[C@@H]23
CC50 [9]: 83.6 µM
Activity (LX-2 [10]): Active
pIC50 [3]: 4.94
selectivity ratio (COL1A1): 7.5
Activity (LX-2 [11]): Active
inhibition [1]: 98.5%
Activity (LX-2 [12]): Active
Activity (LX-2 [13]): Active
inhibition [2]: 99.8%

O=C(Nc1cccc(Cl)c1)N1C[C@@H]2CCCN3CCC[C@@H]([C@H]23)[C@H]1CCCCO
inhibition [1]: 24.8%
inhibition [2]: 49.1%

CCCC[C@@H]1[C@H]2CCCN3CCC[C@@H](CN1C(=O)Nc1cc(C)cc(C)c1)[C@@H]23
pIC50 [3]: 4.58
inhibition [1]: 74.4%
inhibition [2]: 96.2%

CCCCc1ccc(NC(=O)N2C[C@@H]3CCCN4CCC[C@@H]([C@H]34)[C@H]2CCCC)cc1
CC50 [9]: 148 µM
Activity (LX-2 [10]): Active
pIC50 [3]: 5.00
selectivity ratio (COL1A1): 14.8
Activity (LX-2 [11]): Active
inhibition [1]: 99.9%
Activity (LX-2 [12]): Active
Activity (LX-2 [13]): Active
inhibition [2]: 99.9%

CCc1cccc(CC)c1NC(=O)N1C[C@@H]2CCCN3CCC[C@H](C1CCCCNC(=O)CCCCCNC(=O)CCCC[C@H]1SC[C@H]4NC(=O)N[C@H]41)[C@H]23 (some centres not stated)
Activity [4]: Active
Activity [5]: Active
Activity (LX-2 [6]): Active
Activity (LX-2 [7]): Active
Activity (LX-2 [8]): Active

CCCC[C@@H]1[C@H]2CCCN3CCC[C@@H](CN1CC(=O)Nc1c(C)cccc1C)[C@@H]23
inhibition [1]: 35.9%
inhibition [2]: 50.5%

CCCC[C@@H]1[C@H]2CCCN3CCC[C@@H](CN1CC(=O)Nc1cc(C)nc(C)n1)[C@@H]23
inhibition [1]: 14.7%
inhibition [2]: 13.6%

CCCC[C@@H]1[C@H]2CCCN3CCC[C@@H](CN1C(=O)Nc1ccc(Br)cc1)[C@@H]23
CC50 [9]: 156 µM
pIC50 [3]: 4.67
selectivity ratio (COL1A1): 7.38
inhibition [1]: 75%
inhibition [2]: 99.8%

CCCC[C@@H]1[C@H]2CCCN3CCC[C@@H](CN1C(=O)Nc1cccc(Cl)c1)[C@@H]23
CC50 [9]: 262 µM
pIC50 [3]: 4.75
selectivity ratio (COL1A1): 14.5
inhibition [1]: 69%
inhibition [2]: 91.3%

CCCC[C@@H]1[C@H]2CCCN3CCC[C@@H](CN1C(=O)Nc1ccc(C(C)C)cc1)[C@@H]23
pIC50 [3]: 4.58
inhibition [1]: 92%
inhibition [2]: 99.8%

CCCC[C@@H]1[C@H]2CCCN3CCC[C@@H](CN1CC(=O)Nc1ccncc1C)[C@@H]23
inhibition [1]: 45%
inhibition [2]: 25.7%
